Patent EP0184291B1, “Polyether antibiotic A80190” (ELI LILLY AND COMPANY, priority 1984, dated 1986)
≈ marks a conversion by molar mass, not a printed value. Where “and” joins values, the source holds several entries; their conditions need not be identical. Equal entries are not always repeated. Marks after values point to notes of the source that are not given here.

What was measured:
[1] = pKa determination; type: physicochemical; settings: 66% aqueous dimethylformamide; free acid form
Description: Antibiotic A80190 has been assigned structure 1 based on X-ray crystallographic studies.

[2] = system: Bacillus subtilis; assay: Disc-diffusion method; type: cell-based; settings: 6-mm pads dipped in 1 mg of compound per ml, read-out: Zone of Inhibition (mm diameter)
Description: (§1) The inhibitory activity of A80190 is illustrated in Table VI. Activity was measured by the conventional disc-diffusion method (6-mm pads were dipped in solutions containing 1 mg of compound per ml of solution; pads were placed on agar plates seeded with test organism).

[3] = system: Candida albicans; assay: Disc-diffusion method; type: cell-based; settings: 6-mm pads dipped in 1 mg of compound per ml, read-out: Zone of Inhibition (mm diameter)
Description: as §1

[4] = system: Micrococcus luteus; assay: Disc-diffusion method; type: cell-based; settings: 6-mm pads dipped in 1 mg of compound per ml, read-out: Zone of Inhibition (mm diameter)
Description: as §1

[5] = system: Mycobacterium avium; assay: Disc-diffusion method; type: cell-based; settings: 6-mm pads dipped in 1 mg of compound per ml, read-out: Zone of Inhibition (mm diameter)
Description: as §1

[6] = system: Neurospora crassa; assay: Disc-diffusion method; type: cell-based; settings: 6-mm pads dipped in 1 mg of compound per ml, read-out: Zone of Inhibition (mm diameter)
Description: as §1

[7] = system: Saccharomyces pastorianus; assay: Disc-diffusion method; type: cell-based; settings: 6-mm pads dipped in 1 mg of compound per ml, read-out: Zone of Inhibition (mm diameter)
Description: as §1

[8] = system: Staphylococcus aureus; assay: Disc-diffusion method; type: cell-based; settings: 6-mm pads dipped in 1 mg of compound per ml, read-out: Zone of Inhibition (mm diameter)
Description: as §1

[9] = system: Clostridium perfringens 81; assay: microbe, parasite or virus in culture; type: cell-based; settings: Clostridium perfringens, 81, 24 h
[10] = system: Bacteroides corrodens 1874; assay: Agar-dilution assay, anaerobic bacteria; type: cell-based; settings: Eikenella corrodens, 24-hour incubation
Description: (§2) One important aspect of the antimicrobial activity of A80190 compounds relates to their activity against anaerobic bacteria. The minimal inhibitory concentrations (MIC's) at which A80190 inhibits various anaerobic bacteria, as determined by standard agar-dilution assay, are summarized in Table VII. End points were read after 24-hour incubation.

[11] = system: Bacteroides fragilis 111; assay: Agar-dilution assay, anaerobic bacteria; type: cell-based; settings: 24-hour incubation
Description: as §2

[12] = system: Bacteroides fragilis 1877; assay: Agar-dilution assay, anaerobic bacteria; type: cell-based; settings: 24-hour incubation
Description: as §2

[13] = system: Bacteroides fragilis 1936B; assay: Agar-dilution assay, anaerobic bacteria; type: cell-based; settings: 24-hour incubation
Description: as §2

[14] = system: Bacteroides melaninogenicus 1856/28; assay: Agar-dilution assay, anaerobic bacteria; type: cell-based; settings: Prevotella intermedia, 24-hour incubation
Description: as §2

[15] = system: Bacteroides melaninogenicus 2736; assay: Agar-dilution assay, anaerobic bacteria; type: cell-based; settings: 24-hour incubation
Description: as §2

[16] = system: Bacteroides thetaiotaomicron 1438; assay: Agar-dilution assay, anaerobic bacteria; type: cell-based; settings: 24-hour incubation
Description: as §2

[17] = system: Bacteroides vulgatis 1211; assay: Agar-dilution assay, anaerobic bacteria; type: cell-based; settings: 24-hour incubation
Description: as §2

[18] = system: Clostridium difficile 2994; assay: Agar-dilution assay, anaerobic bacteria; type: cell-based; settings: Clostridioides difficile, 24-hour incubation
Description: as §2

[19] = system: Clostridium septicum 1128; assay: Agar-dilution assay, anaerobic bacteria; type: cell-based; settings: 24-hour incubation
Description: as §2

[20] = system: Eubacterium aerofaciens 1235; assay: Agar-dilution assay, anaerobic bacteria; type: cell-based; settings: Collinsella aerofaciens, 24-hour incubation
Description: as §2

[21] = system: Fusobacterium necrophorum 6054A; assay: Agar-dilution assay, anaerobic bacteria; type: cell-based; settings: 24-hour incubation
Description: as §2

[22] = system: Fusobacterium symbiosum 1470; assay: Agar-dilution assay, anaerobic bacteria; type: cell-based; settings: 24-hour incubation
Description: as §2

[23] = system: Peptococcus asaccharolyticus 1302; assay: Agar-dilution assay, anaerobic bacteria; type: cell-based; settings: Peptoniphilus asaccharolyticus, 24-hour incubation
Description: as §2

[24] = system: Peptostreptococcus anaerobius 1428; assay: Agar-dilution assay, anaerobic bacteria; type: cell-based; settings: 24-hour incubation
Description: as §2

[25] = system: Peptostreptococcus intermedius 1624; assay: Agar-dilution assay, anaerobic bacteria; type: cell-based; settings: 24-hour incubation
Description: as §2

[26] = system: Petococcus prevoti 1281; assay: Agar-dilution assay, anaerobic bacteria; type: cell-based; settings: 24-hour incubation
Description: as §2

[27] = system: Propionibacterium acnes 79; assay: Agar-dilution assay, anaerobic bacteria; type: cell-based; settings: Cutibacterium acnes, 24-hour incubation
Description: as §2

[28] = system: volatile-fatty-acid (VFA) concentrations; assay: Ruminant feed-utilization efficiency test (VFA in flasks, method of U.S. Patent 3,794,732); design: species or system ruminants; settings: ratio treated flasks to control flasks
Description: The efficiency of feed use can be monitored by observing the production and concentration of propionate compounds in the rumen using the method described by Arthur P. Raun in U.S. Patent 3,794,732 (see especially Example 5).

[29] = system: Caenorhabditis elegans; assay: Anthelmintic activity; type: in vivo; settings: read-out: active at levels as low as
Description: The A80190 compounds are also anthelmintic agents. For example, A80190 is active against Caenorhabditis elegans at levels as low as 20 ppm.

[30] = system: Eimeria acervulina (Lilly strain 59), Eimeria maxima (strain FS-177) and Eimeria tenella (strain FS-155); assay: Coccidiosis test in broiler chicks, A80190 with nicarbazin (Test 1); type: in vivo; settings: Nicarbazin 0 p.p.m. in ration

Work on `CC[C@@H](O)[C@]1(C)C[C@H](C)[C@@](O)([C@H]2C[C@H](C)[C@H]([C@]3(C)C[C@@H](O[C@H]4CC[C@H](OC)[C@@H](C)O4)[C@H]([C@@H]4CC[C@@]5(O[C@H]([C@@H](C)[C@@H](OC)[C@H](C)C(=O)O)[C@H](C)[C@@H](OC)[C@H]5C)O4)O3)O2)O1` [Example A80190] yielded a pKa [1] of 6.2, a zone of inhibition at 1000 µg/mL [2] of 23 mm and a zone of inhibition at 1000 µg/mL [3] of 14 mm. The zone of inhibition at 1000 µg/mL [4] was 20 mm, the zone of inhibition at 1000 µg/mL [5] was 21 mm and the zone of inhibition at 1000 µg/mL [6] was 14 mm. It also gave a zone of inhibition at 1000 µg/mL [7] of 10 mm, a zone of inhibition at 1000 µg/mL [8] of 17 mm and an MIC [9] of less than 0.5 µg/mL. The MIC [10] was greater than 128 µg/mL, the MIC [11] was greater than 128 µg/mL and the MIC [12] was greater than 128 µg/mL. It also gave an MIC [13] greater than 128 µg/mL, an MIC [14] greater than 128 µg/mL and an MIC [15] greater than 128 µg/mL. The MIC [16] was greater than 128 µg/mL, the MIC [17] was 16 µg/mL (≈ 19.3 µM) and the MIC [18] was less than 0.5 µg/mL. It also gave an MIC [19] of less than 0.5 µg/mL, an MIC [20] of less than 0.5 µg/mL and an MIC [21] of 16 µg/mL (≈ 19.3 µM). For the same compound, the MIC [22] was 8 µg/mL (≈ 9.65 µM), the MIC [23] was 1 µg/mL (≈ 1.21 µM) and the MIC [24] was 1 µg/mL (≈ 1.21 µM). The MIC [25] was 1 µg/mL (≈ 1.21 µM), the MIC [26] was less than 0.5 µg/mL and the MIC [27] was 1 µg/mL (≈ 1.21 µM). For the same compound, the “Molar % Acetate” value ([28]; Dosage 0.3 mcg/ml) was 0.970, the “Molar % Butyrate” value ([28]; Dosage 0.3 mcg/ml) was 0.819 and the “Molar % Propionate” value ([28]; Dosage 0.3 mcg/ml) was 1.220*. For the same compound, the “Total VFA/ Control VFA mM/L” value ([28]; Dosage 0.3 mcg/ml) was 0.967, the “Molar % Acetate” value ([28]; Dosage 1 mcg/ml) was 0.926 and 0.986 and 0.892 and 1.016 and the “Molar % Butyrate” value ([28]; Dosage 1 mcg/ml) was 0.529 and 0.851 and 0.813 and 0.706. The “Molar % Propionate” value ([28]; Dosage 1 mcg/ml) was 1.566* and 1.185* and 1.403* and 1.247*, the “Total VFA/ Control VFA mM/L” value ([28]; Dosage 1 mcg/ml) was 0.913 and 0.916 and 0.887 and 0.857 and the “Molar % Acetate” value ([28]; Dosage 3 mcg/ml) was 0.998. For the same compound, the “Molar % Butyrate” value ([28]; Dosage 3 mcg/ml) was 0.611, the “Molar % Propionate” value ([28]; Dosage 3 mcg/ml) was 1.368* and the “Total VFA/ Control VFA mM/L” value ([28]; Dosage 3 mcg/ml) was 0.963. For the same compound, the minimal effective concentration [29] was 20 µg/mL, the “CECAL LESION SCORES” value ([30]; A80190 4 p.p.m.) was 2.63 and the “INTESTINAL LESION SCORES” value ([30]; A80190 4 p.p.m.) was 8.63. For the same compound, the “WEIGHT GAIN” value ([30]; A80190 4 p.p.m.) was 236 grams/per chicken, the “CECAL LESION SCORES” value ([30]; A80190 8 p.p.m.) was 1.75 and the “INTESTINAL LESION SCORES” value ([30]; A80190 8 p.p.m.) was 5.94. The “WEIGHT GAIN” value ([30]; A80190 8 p.p.m.) was 265 grams/per chicken, the “CECAL LESION SCORES” value ([30]; A80190 12 p.p.m.) was 1.19 and the “INTESTINAL LESION SCORES” value ([30]; A80190 12 p.p.m.) was 3.50. The “WEIGHT GAIN” value ([30]; A80190 12 p.p.m.) was 251 grams/per chicken, the “CECAL LESION SCORES” value ([30]; A80190 16 p.p.m.) was 0.19 and the “INTESTINAL LESION SCORES” value ([30]; A80190 16 p.p.m.) was 1.19. For the same compound, the “WEIGHT GAIN” value ([30]; A80190 16 p.p.m.) was 272 grams/per chicken, the “CECAL LESION SCORES” value ([30]; A80190 20 p.p.m.) was 0.0 and the “INTESTINAL LESION SCORES” value ([30]; A80190 20 p.p.m.) was 0.0. The “WEIGHT GAIN” value ([30]; A80190 20 p.p.m.) was 261 grams/per chicken.
